From publication PMC9921851, “Synthesis and Preclinical Evaluation of Three Novel ^68Ga-Labeled Bispecific PSMA/FAP-Targeting Tracers for Prostate Cancer Imaging” (Molecules, 2023)

What was measured:
[1] = test system: FAP-expressing HEK293T:hFAP tumor xenografts; test: Ex vivo biodistribution in HEK293T:hFAP tumor-bearing mice; settings: 1 h post injection, mean ± SD, n = 4
Method: Biodistribution studies were also conducted at 1 h post injection with [^68Ga]Ga-AV01017, [^68Ga]Ga-AV01030, [^68Ga]Ga-AV01038, [^68Ga]Ga-HTK03041, and [^68Ga]Ga-FAPI-04 in HEK293T:hFAP tumor-bearing mice (Figure 6 and Table S5, Supplementary Materials). Tumor uptake values for [^68Ga]Ga-AV01017, [^68Ga]Ga-AV01030, [^68Ga]Ga-AV01038, [^68Ga]Ga-HTK03041, and [^68Ga]Ga-FAPI-04 were 2.99 ± 0.37, 3.69 ± 0.81, 3.64 ± 0.83, 0.62 ± 0.19, and 12.5 ± 2.00 %ID/g, respectively. There was a very low tumor uptake in mice injected with [^68Ga]Ga-HTK03041, showing very minimal FAP expression in this tumor model. The uptake levels of these tracers on the major organs and tissues are consistent with the trends observed in the LNCaP tumor-baring mice (Figure 5 and Supplemental Table S4).
(§1) Imaging and biodistribution studies were performed using male NOD.Cg-Rag1tm1Mom Il2rgtm1Wjl/SzJ (NRG) mice following previously published procedures. The experiments were conducted according to the guidelines established by the Canadian Council on Animal Care and approved by Animal Ethics Committee of the University of British Columbia. The mice were briefly sedated by inhalation of 2.5% isoflurane in oxygen, and 100 µL LNCaP (2 × 10^5 cells) or HEK293T:hFAP (8.5 × 10^6 cells) cells were inoculated subcutaneously behind the left shoulder. When the tumor grew to 5–8 mm in diameter over 3–4 weeks and 4–5 weeks for HEK293T:hFAP and LNCaP tumors, respectively, the mice were used for PET/CT imaging and biodistribution studies.
(§2) For biodistribution studies, the mice were injected with the radiotracer (~2–4 MBq) as described above. At 1 h post injection, the mice were euthanized by CO2 inhalation. Blood was withdrawn by cardiac puncture, and organs/tissues of interest were collected, weighed, and counted using a Perkin Elmer (Waltham, MA, USA) Wizard2 2480 automatic gamma counter.

[2] = test system: PSMA-expressing LNCaP tumor xenografts; test: Ex vivo biodistribution in LNCaP tumor-bearing mice; settings: LNCaP tumor-bearing mice, 1 h post injection, mean ± SD, n = 4
Method: Biodistribution studies were conducted at 1 h post injection with ^68Ga-labeled AV01017, AV01030, AV01038, HTK03041, and FAPI-04 in LNCaP tumor-bearing mice (Figure 5 and Table S4, Supplementary Materials). The results were consistent with the observation from their PET images. Tumor uptake values for [^68Ga]Ga-AV01017, [^68Ga]Ga-AV01030, [^68Ga]Ga-AV01038, [^68Ga]Ga-HTK03041, and [^68Ga]Ga-FAPI-04 were 4.38 ± 0.55, 5.17 ± 0.51, 4.25 ± 0.86, 23.1 ± 6.11, and 3.15 ± 1.43 %ID/g, respectively. […] Although not statistically significant, the bispecific tracers with a longer linker tend to have a higher blood uptake value (9.24 ± 1.55 %ID/g for [^68Ga]Ga-AV01017; 7.07 ± 0.31%ID/g for [^68Ga]Ga-AV01038; 5.75 ± 0.59 %ID/g for [^68Ga]Ga-AV01030) and a lower tumor-to-blood ratio (0.48 ± 0.11 for [^68Ga]Ga-AV01017; 0.60 ± 0.13 for [^68Ga]Ga-AV01038; 0.89 ± 0.03 for [^68Ga]Ga-AV01030).
as §1, §2

N#C[C@@H]1CC(F)(F)CN1C(=O)CNC(=O)c1ccnc2ccc(OCCCN3CCN(C(=O)CN4CCN(CC(=O)[O-])CCN(CC(=O)[O-])CCN(CC(=O)[O-])CC4)CC3)cc12.[68Ga+3] [[^68Ga]Ga-FAPI-04, reference compound]
Adrenal glands uptake [1]: 1.07 ± 0.32 %ID/g
Blood uptake [1]: 1.07 ± 0.08 %ID/g
Bone uptake [1]: 3.36 ± 1.09 %ID/g
Brain uptake [1]: 0.04 ± 0.00 %ID/g
Fat uptake [1]: 0.10 ± 0.01 %ID/g
HEK293T:hFAP tumor uptake [1]: 12.5 ± 2.00 %ID/g
Heart uptake [1]: 0.34 ± 0.04 %ID/g
Kidneys uptake [1]: 1.83 ± 0.16 %ID/g
Liver uptake [1]: 0.36 ± 0.02 %ID/g
Lungs uptake [1]: 0.74 ± 0.11 %ID/g
Muscle uptake [1]: 0.67 ± 0.05 %ID/g
Pancreas uptake [1]: 0.37 ± 0.05 %ID/g
Seminal vesicle uptake [1]: 0.15 ± 0.04 %ID/g
Small Intestine uptake [1]: 0.36 ± 0.08 %ID/g
Spleen uptake [1]: 0.56 ± 0.11 %ID/g
Stomach uptake [1]: 0.07 ± 0.01 %ID/g
Testes uptake [1]: 0.28 ± 0.04 %ID/g
Tumor/blood uptake ratio [1]: 11.7 ± 2.04
Tumor/bone uptake ratio [1]: 3.93 ± 1.16
Tumor/kidney uptake ratio [1]: 6.85 ± 1.33
Tumor/muscle uptake ratio [1]: 18.8 ± 4.09
Adrenal glands uptake [2]: 2.16 ± 1.08 %ID/g
Blood uptake [2]: 2.16 ± 0.33 %ID/g
Bone uptake [2]: 4.27 ± 0.74 %ID/g
Brain uptake [2]: 0.06 ± 0.00 %ID/g
Fat uptake [2]: 0.55 ± 0.47 %ID/g
Heart uptake [2]: 0.70 ± 0.04 %ID/g
Kidneys uptake [2]: 2.36 ± 0.38 %ID/g
LNCaP tumor uptake [2]: 3.15 ± 1.43 %ID/g
Lacrimal glands uptake [2]: 0.06 ± 0.07 %ID/g
Large Intestine uptake [2]: 0.73 ± 0.09 %ID/g
Liver uptake [2]: 0.76 ± 0.08 %ID/g
Lungs uptake [2]: 1.23 ± 0.07 %ID/g
Muscle uptake [2]: 1.04 ± 0.20 %ID/g
Pancreas uptake [2]: 0.99 ± 0.25 %ID/g
Salivary glands uptake [2]: 1.36 ± 0.92 %ID/g
Seminal vesicle uptake [2]: 3.72 ± 5.09 %ID/g
Small Intestine uptake [2]: 0.74 ± 0.12 %ID/g
Spleen uptake [2]: 0.67 ± 0.11 %ID/g
Stomach uptake [2]: 0.26 ± 0.04 %ID/g
Testes uptake [2]: 0.42 ± 0.04 %ID/g
Thyroid uptake [2]: 3.62 ± 1.01 %ID/g
Tumor/blood uptake ratio [2]: 1.04 ± 0.42
Tumor/bone uptake ratio [2]: 0.51 ± 0.28
Tumor/kidney uptake ratio [2]: 0.90 ± 0.28
Tumor/muscle uptake ratio [2]: 2.30 ± 0.79

N#C[C@@H]1CC(F)(F)CN1C(=O)CNC(=O)c1ccnc2ccc(OCc3cn(CC(=O)N[C@@H](CCCCNC(=O)CN4CCN(CC(=O)[O-])CCN(CC(=O)[O-])CCN(CC(=O)[O-])CC4)C(=O)NCC(=O)NC[C@H]4CC[C@H](C(=O)N[C@@H](Cc5c6ccccc6cc6ccccc56)C(=O)NCCCC[C@H](NC(=O)N[C@@H](CCC(=O)O)C(=O)O)C(=O)O)CC4)nn3)cc12.[68Ga+3] [[^68Ga]Ga-AV01038]
Adrenal glands uptake [1]: 6.14 ± 3.79 %ID/g
Blood uptake [1]: 7.45 ± 1.70 %ID/g
Bone uptake [1]: 3.03 ± 1.12 %ID/g
Brain uptake [1]: 0.13 ± 0.02 %ID/g
Fat uptake [1]: 0.53 ± 0.10 %ID/g
HEK293T:hFAP tumor uptake [1]: 3.64 ± 0.83 %ID/g
Heart uptake [1]: 2.69 ± 0.22 %ID/g
Kidneys uptake [1]: 25.0 ± 1.76 %ID/g
Lacrimal gland uptake [1]: 0.22 ± 0.16 %ID/g
Large Intestine uptake [1]: 0.99 ± 0.17 %ID/g
Liver uptake [1]: 2.16 ± 0.33 %ID/g
Lungs uptake [1]: 3.83 ± 0.55 %ID/g
Muscle uptake [1]: 1.23 ± 0.11 %ID/g
Pancreas uptake [1]: 3.82 ± 1.29 %ID/g
Salivary glands uptake [1]: 4.02 ± 0.69 %ID/g
Seminal vesicle uptake [1]: 1.15 ± 0.69 %ID/g
Small Intestine uptake [1]: 1.70 ± 0.19 %ID/g
Spleen uptake [1]: 5.47 ± 1.03 %ID/g
Stomach uptake [1]: 0.60 ± 0.18 %ID/g
Testes uptake [1]: 0.74 ± 0.09 %ID/g
Thyroid uptake [1]: 6.51 ± 1.07 %ID/g
Tumor/blood uptake ratio [1]: 0.49 ± 0.37
Tumor/bone uptake ratio [1]: 1.17 ± 0.40
Tumor/kidney uptake ratio [1]: 0.11 ± 0.02
Tumor/muscle uptake ratio [1]: 2.21 ± 0.17
Adrenal glands uptake [2]: 3.69 ± 2.54 %ID/g
Blood uptake [2]: 7.07 ± 0.31 %ID/g
Bone uptake [2]: 4.64 ± 1.70 %ID/g
Brain uptake [2]: 0.15 ± 0.02 %ID/g
Fat uptake [2]: 1.01 ± 0.28 %ID/g
Heart uptake [2]: 3.26 ± 0.24 %ID/g
Kidneys uptake [2]: 40.5 ± 8.26 %ID/g
LNCaP tumor uptake [2]: 4.25 ± 0.86 %ID/g
Lacrimal glands uptake [2]: 0.06 ± 0.13 %ID/g
Large Intestine uptake [2]: 1.65 ± 0.31 %ID/g
Liver uptake [2]: 2.06 ± 0.13 %ID/g
Lungs uptake [2]: 3.74 ± 0.78 %ID/g
Muscle uptake [2]: 1.68 ± 0.21 %ID/g
Pancreas uptake [2]: 3.91 ± 0.20 %ID/g
Salivary glands uptake [2]: 6.41 ± 1.19 %ID/g
Seminal vesicle uptake [2]: 1.51 ± 0.08 %ID/g
Small Intestine uptake [2]: 2.12 ± 0.24 %ID/g
Spleen uptake [2]: 6.77 ± 4.86 %ID/g
Stomach uptake [2]: 0.64 ± 0.11 %ID/g
Testes uptake [2]: 1.04 ± 0.10 %ID/g
Thyroid uptake [2]: 11.1 ± 1.62 %ID/g
Tumor/blood uptake ratio [2]: 0.60 ± 0.13
Tumor/bone uptake ratio [2]: 0.97 ± 0.30
Tumor/kidney uptake ratio [2]: 0.10 ± 0.02
Tumor/muscle uptake ratio [2]: 2.52 ± 0.33
